Reference: patent EP1984014B1, “USE OF TPO PEPTIDE COMPOUNDS AND PHARMACEUTICAL COMPOSITIONS IN THE TREATMENT OF ANEMIA” (Janssen Pharmaceutica NV, priority 2006, dated 2007)

Columns and labels:
[1] = test system: mice treated with two rounds of carboplatin; assay: Example 5: two rounds of high-dose carboplatin, hematocrit and survival of mice; type: in vivo; details: of the mice not utilized for hematological evaluation; carboplatin alone versus combination therapy
Description: (§1) The effects of PEGylated TPO Compound No. 1 on mice treated with carboplatin were observed. For all examples herein, a 10 mg/ml stock solution of PEGylated TPO Compound No. 1 was prepared in sterile saline. For mixing, the preparation was placed on a gyratory shaker for 15min. at 200 rpm. This method was used to dissolve PEGylated TPO Compound No. 1 without foaming. The stock was filtered using a GV Millex (0.22um) filter. Dosing solutions were then prepared from this stock using sterile saline. The stock and dosing solutions were prepared fresh on the day of use.
Groups of mice were treated with two rounds of the chemotherapeutic agent (carboplatin) ten days apart, with each round consisting of two consecutive days of carboplatin (i.e., 70 mg/kg/day administered on Days -1 & 0 and Days 10 & 11) as delineated below. The dose of carboplatin utilized for these survival studies exceeded the maximal tolerated dose for mice (i.e., 120 mg/kg; administered as 60 mg/kg/day on 2 consecutive days). One hour following the second dose of carboplatin in each round (i.e., Day 0 and 11) mice were treated with PEGylated TPO Compound No. 1 (100ug/kg) or vehicle (sterile saline, SS, preservative-free 0.9% sodium chloride) by IV (bolus) injection as delineated below. The dose was administered on a per weight basis (100 ul/10g body weight). […]

[2] = test system: mice treated with carboplatin; assay: Example 2: dosing seven days before and/or 1 hour after carboplatin, hematological parameters in mice; type: in vivo, BALB/c mouse; details: carboplatin alone
Description: as §1
The possibility that PEGylated TPO Compound No. 1 may sensitize bone marrow hematopoietic stem cells of mice to the toxic effects of carboplatin treatment was examined. For this study, a dose of PEGylated TPO Compound No. 1 was administered to the mice seven days prior to the carboplatin dose or immediately after carboplatin treatment. An additional group was treated with PEGylated TPO Compound No. 1 both prior to and after carboplatin administration. The effect of these dosing regimens on hematological parameters was also observed.
The groups of mice were treated with either carboplatin or vehicle (Phosphate Buffered Saline, PBS) by ip administration on Days 7 and 8 as delineated below. The optimal dose of carboplatin used to induce thrombocytopenia in the BALB/c mouse strain was previously determined to be a fractionated total dose of 120mg/kg given as two consecutive daily injections (i.e., 2x60mg/kg). Seven days prior to the first carboplatin dose or one (1) hour after the second dose of carboplatin, groups of mice were treated with PEGylated TPO Compound No. 1 (300ug/kg) or vehicle (sterile saline, SS, preservative-free 0.9% sodium chloride) by IV (bolus) injection as delineated in Table 2. An additional group was treated with PEGylated TPO Compound No. 1 both before (Day 0) and after (Day 8, t=1h) the carboplatin dose. All dosing was performed on a per-weight basis (100ul/10g body weight).
On Days 14, 18, 22 and 26, five mice in each test group were weighed and then euthanised using CO2-asphyxiation and exsanguination via cardiac puncture. The blood samples were transferred to separate EDTA (lavender-top) microcontainers for hematological evaluation. Groups of control mice (5) were processed on Days 14 and 26. The data are presented graphically as group means + SEM.

carboplatin-treated mice = assay: Example 4: lower doses (30, 100, 300ug/kg) as survival factor for erythrocyte lineages in carboplatin-treated mice; type: in vivo, BALB/c mouse; details: carboplatin alone; by Day 12
Description: as §1
The ability of PEGylated TPO Compound No. 1 to function as a survival factor for megakaryocyte and erythrocyte lineages in carboplatin-treated mice as determined by changes in hematological parameters was observed. […] In this study, the effect of lower doses of PEGylated TPO Compound No. 1 (i.e., 30, 100 and 300ug/kg) on the survival of erythrocyte lineages was examined to characterize the dose-response for this effect.
(§2) The groups of mice were treated with either carboplatin or vehicle (Phosphate Buffered Saline, PBS) by ip administration on Days -1 and 0 as delineated below. The optimal dose of carboplatin used to induce thrombocytopenia in the BALB/c mouse strain was previously determined to be a fractionated total dose of 120mg/kg given as two consecutive daily injections (i.e., 2x60mg/kg). Approximately one hour following the second dose of carboplatin, groups of mice were treated with PEGylated TPO Compound No. 1 or vehicle (sterile saline, SS, preservative-free 0.9% sodium chloride) by IV (bolus) injection as delineated in Table 4. The dose was administered on a per-weight basis (100ul/10g body weight).
(§3) On Days 6, 8 and 12, five mice in each test group were weighed and then euthanised using CO2-asphyxiation and exsanguinations via cardiac puncture. The blood samples were transferred to separate EDTA (lavender-top) microcontainers for hematologic evaluation. Groups of control mice (5) were processed on Days 6 & 12.

[3] = test system: mice treated with carboplatin; assay: Example 1: dose response of PEGylated TPO Compound No. 1 given one day after carboplatin, anemia in mice; type: in vivo, BALB/c mouse; details: carboplatin alone 2x60mg/kg ip; by Day 11
Description: as §1
The effect of PEGylated TPO Compound No. 1 on the duration and severity of anemia following treatment of mice with carboplatin as determined by changes in hemoglobin levels, red blood cell count and hematocrit, was observed. For this study, increasing amounts of PEGylated TPO Compound No. 1 were administered to mice one day following a carboplatin dose to characterize a possible dose-dependent effect on various red blood cell parameters.
as §2, with “intraperitoneal” for “ip”, “Days -2 and” for “Days”, “-1” for “-1 and 0”, “One day” for “Approximately one hour”, “1.” for “4.”
On Days 5, 7, 9 and 11, five mice in each test group were weighed and then euthanised using CO2-asphyxiation and exsanguinations via cardiac puncture. The blood samples were transferred to separate EDTA (lavender-top) microcontainers for hematologic evaluation. Groups of control mice (5) were processed on Days 5 and 11. The data are presented graphically as group means +SEM.

[4] = test system: mice treated with carboplatin; assay: Example 3: dosing 1 hour, 1 day or 4 days after carboplatin, anemia in mice; type: in vivo, BALB/c mouse; details: carboplatin alone; surviving mice (2 mice) by Day 12 compared to control groups
Description: as §1
The effect of PEGylated TPO Compound No. 1 on the duration and severity of anemia following dosing regimens in which PEGylated TPO Compound No. 1 is administered at various times following the carboplatin treatment was observed. For this study, an amount of PEGylated TPO Compound No. 1 was administered to mice, one (1) hour, one (1) day or four (4) days following a carboplatin dose.
The groups of mice were treated with either carboplatin or vehicle (Phosphate Buffered Saline, PBS) by ip administration on Days -1 and 0 as delineated below. The optimal dose of carboplatin used to induce thrombocytopenia in the BALB/c mouse strain was previously determined to be a fractionated total dose of 120mg/kg given as two consecutive daily injections (i.e., 2x60mg/kg). One hour (Day 0), one day (Day 1) or four days (Day 4) following the second dose of carboplatin, groups of mice were treated with PEGylated TPO Compound No. 1 (300ug/kg) or vehicle (sterile saline, SS, preservative-free 0.9% sodium chloride) by IV (bolus) injection as delineated in Table 3. The dose was administered on a per-weight basis (100ul/10g body weight).
as §3, with “8, 10 &” for “8 and”, “hematological” for “hematologic”, “12. The data are presented graphically as group means + SEM.” for “12.”

## N.N.O=C([O-])C1(C(=O)[O-])CCC1.[Pt+2] [carboplatin]
[1]
  mice that died between days 4 and 18: 7
[2]; between Days 7 and 26
  lost body weight (average): approximately 4%
[2]; by Days 18 and 22 compared to control groups
  decreases in hemoglobin levels, RBC counts and hematocrits: approx. 18%
carboplatin-treated mice
  decrease in hemoglobin levels: greater than 25%
[3]
  decrease in hemoglobin levels: ~20%
[4]
  decreases in hemoglobin levels, RBC counts and hematocrits: approx. 47%
